Columns and labels:
Human GPR40 [1] = target: T1, Human GPR40 (Homo sapiens, UniProt O14842); assay: Inositol Phosphate Turnover (IP1) Assay; type: cell-based; parameters: expressed in transfected cells; host or cells: HEK cells (stably expressing the aequorin reporter); settings: HEK cells stably expressing human GPR40, CisBio IP-One kit
Description: (§1) Human and mouse GPR40 stable cell-lines were generated in CHO cells stably expressing NFAT BLA (Beta-lactamase). A human GPR40 stable cell-line was generated in HER cells stably expressing the aequorin expressing reporter. The expression plasmids were transfected using lipofectamine (Life Technologies) following manufacturer's instructions. Stable cell-lines were generated following drug selection.
The assay is performed in 384-well format. HEK cells stably expressing human GPR40 are plated at 15,000 cells per well in growth medium (DMEM/10% fetal calf serum). Cell plates are then incubated 16 hours at 37 degrees in a 5% CO2 incubator.
Measurement of Inositol Phosphate Turnover (IP1) is performed using the CisBio IP-One kit (Part number 62IPAPEB). After the 16 hour incubation, the cells are washed with HEPES buffer and 10 ul of stimulation buffer (prepared as described in the kit) is added to each well. In a separate plate, compounds are diluted in DMSO (400-fold over the final concentration in the assay well) and 25 nl is acoustically transferred to the appropriate well in the assay cell plate. The plates are then incubated for 60 minutes at 37 degrees. 10 ul of detection buffer (also prepared as described in the IP-One kit) is added to each well and the plates are incubated for 60 minutes in the dark. The plates are then read in a Perkin Elmer EnVision or equivalent reader able to measure FRET. Fluorescent ratio of emission at 665 and 620 nm is then converted to IP1 concentration by back calculating from an IP1 standard curve prepared at the time of the assay.

Human GPR40 [2] = target: T1, Human GPR40; assay: FLIPR assay, agonist-induced calcium mobilization; type: cell-based; parameters: expressed in transfected cells; settings: GPR40/CHO NFAT BLA cells
Description: as §1
FLIPR (Fluorimetric Imaging Plate Reader, Molecular Devices) assays were performed to measure agonist-induced calcium mobilization of the stable clones. For the FLIPR assay, one day before assay, GPR40/CHO NFAT BLA cells were seeded into black-wall-clear-bottom 384-well plates (Costar) at 1.4×10e4 cells/20 μL medium/well. The cells were incubated with 20 μl/well of the assay buffer (HMS, 0.1% BSA, 20 mM HEPES, 2.5 mM probenecid, pH 7.4) containing 8 μM fluo-4, AM, 0.08% pluronic acid at room temperature for 100 minutes. Fluorescence output was measured using FLIPR. Compounds were dissolved in DMSO and diluted to desired concentrations with assay buffer. 13.3 μL/well of compound solution was added.

T1 sequence (O14842 whole entry): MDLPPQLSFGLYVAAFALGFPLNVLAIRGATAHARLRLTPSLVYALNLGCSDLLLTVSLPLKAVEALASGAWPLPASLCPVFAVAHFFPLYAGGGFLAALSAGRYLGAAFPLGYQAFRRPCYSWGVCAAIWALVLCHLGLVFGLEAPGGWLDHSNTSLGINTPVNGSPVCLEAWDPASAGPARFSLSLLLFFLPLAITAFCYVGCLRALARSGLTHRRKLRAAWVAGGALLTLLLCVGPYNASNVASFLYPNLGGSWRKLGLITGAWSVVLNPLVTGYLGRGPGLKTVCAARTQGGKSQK

Compound	EC50 (Human GPR40 [1]) [nM]	EC50 (Human GPR40 [2]) [nM]
CC1(C)CC(c2cccnc2C(F)(F)F)c2cc(COc3cc4c(cn3)[C@H]3[C@@H](C4)[C@@H]3C(=O)O)c(F)cc21 (stereo partly drawn) [Example 26, (5aR,6S,6aS)-3-((6-fluoro-1,1-dimethyl-3-(2-(trifluoromethyl)pyridin-3-yl)-2,3-dihydro-1H-inden-5-yl)methoxy)-5,5a,6,6a-tetrahydrocyclopropa [4,5]cyclopenta[1,2-c]pyridine-6-carboxylic acid]	20.8	14.1
CN1CC(C)(C)c2cc(F)c(COc3cc4c(cn3)[C@H]3[C@@H](C4)[C@@H]3C(=O)O)cc2[C@H]1c1ccccc1C(F)(F)F [Example 73, (5aR,6S,6aS)-3-(((S)-6-fluoro-2,4,4-trimethyl-1-(2-(trifluoromethyl)phenyl)-1,2,3,4-tetrahydroisoquinolin-7-yl)methoxy)-5,5a,6,6a-tetrahydrocyclopropa[4,5]cyclopenta[1,2-c]pyridine-6-carboxylic acid]	21.1	18.6
C=C(C)CCOc1ccc(C2CCCc3ccc(COc4cc5c(cn4)[C@H]4[C@@H](C5)[C@@H]4C(=O)O)cc32)c(C)n1 (stereo partly drawn) [Example 31, (5aR,6S,6aS)-3-((8-(2-methyl-6-((3-methylbut-3-en-1-yl)oxy)pyridin-3-yl)-5,6,7,8-tetrahydronaphthalen-2-yl)methoxy)-5,5a,6,6a-tetrahydrocyclopropa[4,5] cyclopenta[1,2-c]pyridine-6-carboxylic acid]	214	51.9
COc1nccc(C)c1C1CC(C)(C)c2ccc(COc3cc4c(cn3)[C@H]3[C@@H](C4)[C@@H]3C(=O)O)cc21 (stereo partly drawn) [Example 15, (5aR,6S,6aS)-3-((3-(2-methoxy-4-methylpyridin-3-yl)-1,1-dimethyl-2,3-dihydro-1H-inden-5-yl)methoxy)-5,5a,6,6a-tetrahydrocyclopropa[4,5] cyclopenta[1,2-c]pyridine-6-carboxylic acid]	7.77	8.6
O=C(O)[C@H]1[C@@H]2Cc3cc(OCc4ccc5c(c4)C(c4ccccc4C(F)(F)F)CC5c4ccccc4)ncc3[C@@H]21 (stereo partly drawn) [Example 18, (5aR,6S,6aS)-3-((1-phenyl-3-(2-(trifluoromethyl)phenyl)-2,3-dihydro-1H-inden-5-yl)methoxy)-5,5a,6,6a-tetrahydrocyclopropa[4,5]cyclopenta[1,2-c]pyridine-6-carboxylic acid]	24.6	13.2
O=C(O)[C@H]1[C@@H]2Cc3cc(OCc4ccc5c(c4)C(c4ccccc4C(F)(F)F)CC54CC4)ncc3[C@@H]21 (stereo partly drawn) [Example 1, (5aR,6S,6aS)-3-((3′-(2-(trifluoromethyl)phenyl)-2′,3′-dihydrospiro[cyclopropane-1,1′-inden]-5′-yl)methoxy)-5,5a,6,6a-tetrahydrocyclopropa[4,5]cyclopenta[1,2-c]pyridine-6-carboxylic acid]	11.4	32.6
O=C(O)[C@H]1[C@@H]2Cc3cc(OCc4cc5c(cc4F)C(F)(F)CC5c4ccccc4C(F)(F)F)ncc3[C@@H]21 (single isomer, unassigned) [Example 70]	15.8	5.99
CC1(C)CC(c2ccccc2)c2cc(COc3cc4c(cn3)[C@H]3[C@@H](C4)[C@@H]3C(=O)O)ccc21 (stereo partly drawn) [Example 9, (5aR,6S,6aS)-3-((1,1-dimethyl-3-phenyl-2,3-dihydro-1H-inden-5-yl)methoxy)-5,5a,6,6a-tetrahydrocyclopropa[4,5]cyclopenta[1,2-c]pyridine-6-carboxylic acid]	22.4	16.9
CN1C(c2ccccc2C(F)(F)F)c2cc(COc3cc4c(cn3)[C@H]3[C@@H](C4)[C@@H]3C(=O)O)ccc2C1(C)C (stereo partly drawn) [Example 38, (5aR,6S,6aS)-3-((1,1,2-trimethyl-3-(2-(trifluoromethyl)phenyl)isoindolin-5-yl)methoxy)-5,5a,6,6a-tetrahydrocyclopropa[4,5]cyclopenta[1,2-c]pyridine-6-carboxylic acid]	11.9	5.35
